How the values were obtained:
Assay type in all cases: cell-based
[1] = tested on: Clusters from pluripotent human embryonic stem cell line H1 (NIH code: WA01); assay: qRT-PCR gene expression, fold versus undifferentiated cells, 0-72 hours of differentiation (Example 15)
Protocol: (§1) Clusters from pluripotent human embryonic stem cell line H1 (NIH code: WA01) were seeded at 0.5×10^6 cells/ml in Erlenmeyer shaker flasks in MCDB-131 medium containing […] sodium bicarbonate and 5.5 mM glucose (Catalog #A13051 DJ, Invitrogen, CA), which was supplemented with 2% fatty acid free BSA (Catalog #68700, Proliant, Iowa), 1× GlutaMAX™ (Catalog #35050-079, Invitrogen, CA), an additional 2.5 mM glucose (Catalog #G8769, Sigma) and ITS-X at 1:50,000 stock concentration (Catalog #51500056, Invitrogen, CA). MCDB-131 medium supplemented in this manner will be referred to as stage 1 basal medium or “Neat” medium for the purposes of this example. The GSK3B inhibitor, 14-Prop-2-en-1-yl-3,5,7,14,17,23,27-heptaazatetracyclo[19.3.1.1-2,6˜.1˜8,12˜]heptacosa-1(25),2(27),3,5,8(26),9,11,21,23-nonaen-16-one, U.S. patent application Ser. No. 12/494,789; incorporated herein by reference in its entirety will be referred to as “MCX”.
(§2) Clusters were treated on the first day of differentiation with one of six conditions: (1) Neat, (2) 3 μM MCX plus 100 ng/ml GDF-8 (Catalog #120-00, Peprotech), (3) 3 μM MCX only, (4) 100 ng/ml GDF-8 only, (5) 20 ng/ml WNT-3A (Catalog #1324-WN-002, R&D Systems, MN) plus 100 ng/ml Activin A (Catalog #338-AC, R&D Systems, MN), or (6) 20 ng/ml WNT-3A only.
(§3) Media in each of the conditions was changed at 24 and 48 hours after the initiation of differentiation. At these times, cells in conditions 1, 2, 3, and 4 were changed to fresh stage 1 basal media supplemented with 100 ng/ml GDF8 while cells in conditions 5 and 6 were changed to fresh stage 1 basal media supplemented with 100 ng/ml Activin A.
However, consistent with the differences in cell cycle observed through the process of forming definitive endoderm, intermediate differences in gene expression were seen. […] (FIGS. 88c and e).

[2] = tested on: Clusters from pluripotent human embryonic stem cell line H1 (NIH code: WA01); assay: Cell viability of clusters treated with MCX in suspension culture; details: MCX at concentrations above 4 μM
Protocol: Clusters from pluripotent human embryonic stem cell line H1 (NIH code: WA01) were seeded at cell densities ranging from 0.25×10^6 to 2×10^6 cells/ml in Erlenmeyer/shaker flasks or spinner flasks in stage 1 basal media as described in Example 9. Clusters were treated with stage 1 basal medium containing 1.5, 2, 3, or 4 μM MCX on day one of differentiation and with fresh stage 1 basal medium containing 100 ng/ml GDF-8 on day 2. No media exchange was performed on day three. Samples were collected for flow cytometry and PCR analysis at the end of day three of differentiation.
The efficiency with which definitive endoderm was generated was then determined by measuring the percentage of cells expressing the cells surface markers CXCR4, CD99 and CD9 using flow cytometry. […] However, by increasing BSA concentrations, the effects of MCX can be modulated such that concentrations≥4 micromolar may be used. Conversely, concentrations≤1.5 micromolar may be used to generate definitive endoderm when used with lower BSA concentrations.

[3] = tested on: Clusters from pluripotent human embryonic stem cell line H1 (NIH code: WA01); assay: EdU incorporation and cell cycle stage (G0/G1, S, G2/M) by flow cytometry during definitive endoderm differentiation; details: for cells in G0/G1 of the cell cycle: 48 hours after initiation of differentiation; for percentage of cells with EdU incorporation (mean of GDF8, WNT-3A, WNT-3A+Activin A and neat medium) / average decrease in the number of cells in G0/G1 (GDF8, WNT-3A, WNT-3A+Activin A and neat medium): six hours after the initiation of differentiation; for percentage of cells with EdU incorporation (mean of GDF8, WNT-3A, WNT-3A+Activin A and neat medium): SD ±1.2; for average decrease in the number of cells in G0/G1 (GDF8, WNT-3A, WNT-3A+Activin A and neat medium): Standard Deviation ±5%
Protocol: as §1, §2, §3
One hour prior to initiation of differentiation, and 5, 23, 29, 47, or 71 hours after the initiation of differentiation (referred to as “Time 0”), suspension samples were transferred to a non-tissue culture treated six well dish and incubated with EdU (Click-iT® EdU Kit, Life Technologies Corporation, Carlsbad, Calif.) for one hour. The EdU incubated cells were then assessed by flow cytometry at times 0, 6, 24, 30, 48, or 72 hours after initiation of differentiation to measure the percentage of cells in G0/G1, S, or G2/M stages of the cell cycle (FIGS. 81-87).

[4] = tested on: Clusters from pluripotent human embryonic stem cell line H1 (NIH code: WA01); assay: Efficiency of definitive endoderm generation: percentage of cells expressing CXCR4 (CD184), CD99 and CD9 by flow cytometry after 3 days of differentiation in suspension culture; details: for CD9 (% by FACS) / CD184 (% by FACS) / CD99 (% by FACS): end of day three
Protocol: Clusters from pluripotent human embryonic stem cell line H1 (NIH code: […] MCDB-131 medium supplemented in this manner will be referred to as “stage 1 basal medium” for the purposes of this application. […] No. 12/494,789; incorporated herein by reference in its entirety) and 100 ng/ml GDF-8 (Catalog #120-00, Peprotech), or 3 μM MCX only, or 20 ng/ml WNT-3A (Catalog #1324-WN-002, R&D Systems, MN) plus 100 ng/ml Activin A (Catalog #338-AC, R&D Systems, MN) or 20 ng/ml WNT-3A only. On day two, cells were transferred to fresh stage 1 basal media supplemented with either 100 ng/ml GDF8 or 100 ng/ml Activin A. Samples were collected for flow cytometry, PCR and Western Blot analysis at various time points ranging from time zero (immediately before addition of basal media plus supplements) up to 72 hours after beginning differentiation. The efficiency with which definitive endoderm was generated was determined after 3 days of differentiation under each condition by measuring the percentage of cells expressing the cells surface markers CXCR4, CD99 and CD9 using flow cytometry. […] Clusters from pluripotent human embryonic stem cell line H1 (NIH code: WA01) were seeded at cell densities ranging from 0.25×10^6 to 2×10^6 cells/ml in Erlenmeyer/shaker flasks or spinner flasks in stage 1 basal media as described in Example 9. Clusters were treated with stage 1 basal medium containing 1.5, 2, 3, or 4 μM MCX on day one of differentiation and with fresh stage 1 basal medium containing 100 ng/ml GDF-8 on day 2. No media exchange was performed on day three. Samples were collected for flow cytometry and PCR analysis at the end of day three of differentiation. The efficiency with which definitive endoderm was generated was then determined by measuring the percentage of cells expressing the cells surface markers CXCR4, CD99 and CD9 using flow cytometry. […] However, by increasing BSA concentrations, the effects of MCX can be modulated such that concentrations≥4 micromolar may be used. Conversely, concentrations≤1.5 micromolar may be used to generate definitive endoderm when used with lower BSA concentrations. The example was carried out to determine whether GlutaMAX™ supplementation was required for generation of definitive endoderm by suspending clusters in stage 1 basal media (described in Example 9) plus or minus GlutaMAX™, which was supplemented with 3 μM MCX on day one of differentiation and with fresh stage 1 basal medium containing 100 ng/ml GDF-8 on day 2. No media exchange was performed on day three. Samples were collected for flow cytometry and PCR analysis at the end of day three of differentiation. The efficiency with which definitive endoderm was generated was determined under each condition by measuring the percentage of cells expressing the cells surface markers CXCR4, CD99 and CD9 using flow cytometry. Clusters from pluripotent human embryonic stem cell line H1 (NIH code: […] Clusters were treated with stage 1 basal medium containing MCX and GDF-8 as described in Example 12. Samples were collected for flow cytometry at the end of day three of differentiation. Phase contrast images were also captured on each day of differentiation. The efficiency with which definitive endoderm was generated was then determined by measuring the percentage of cells expressing the cells surface markers CXCR4, CD99 and CD9 using flow cytometry. The data is shown in FACS plots in FIGS. 44 A&B and summarized in Table 17. […] In addition, it was observed that differences in bicarbonate levels correlated with differences in cluster morphologies at the end of stage 1, as observed by phase contrast microscopy (FIGS. 44 C&D). Also, cells differentiated under high bicarbonate levels were noted to form looser clusters than cells differentiated in 2.43 g/L of bicarbonate.

[5] = 6 hours following initiation of differentiation
[6] = 1.5 μM MCX on day one, 100 ng/ml GDF-8 on day 2
[7] = 2 μM MCX on day one, 100 ng/ml GDF-8 on day 2
[8] = 3 μM MCX on day one, 100 ng/ml GDF-8 on day 2
[9] = 4 μM MCX on day one, 100 ng/ml GDF-8 on day 2
[10] = 2.43 g/L Sodium bicarbonate in modified stage 1 basal media, MCX and GDF-8
[11] = 3.64 g/L Sodium bicarbonate in stage 1 basal media, MCX and GDF-8

For C=CCN1CC(=O)NCCCc2cncc(c2)-c2ncnc(n2)Nc2cccc(c2)C1 [MCX, 14-Prop-2-en-1-yl-3,5,7,14,17,23,27-heptaazatetracyclo[19.3.1.1˜2,6-˜0.1˜8,12.˜]heptacosa-1(25),2(27),3,5,8(26),9,11,21,23-non-aen-16-one], the “magnitude of induction of FGF4, FOXA2 and SOX17 compared to the other four conditions” value ([1]; 24 hours after the initiation of differentiation) was “much lower”, the “expression of genes for pluripotency (NANOG and POU5F1/OCT4) versus starting cell population or other four conditions” value ([1]; by 24 hours) was “dramatically reduced” and the “definitive endoderm by gene expression versus 20 ng/ml WNT-3A plus 100 ng/ml Activin A on day one” value ([1]; end of definitive endoderm formation) was “comparable”. The “induction of genes T (brachyury), GATA4 and CDX2 versus WNT-3A+Activin A or the other three conditions” value ([1]; first 24 hours of differentiation) was “substantially higher”, the “effect on cell viability” value [2] was “decreased cell viability” and the “increase in G0/G1 cells” value [3, 5] was 54%. The “reduction in the incorporation of EdU compared to the other four treatment conditions” value [3, 5] was about 40%, the “CD9 (% by FACS)” value [4, 6] was 68.4% and the “CD184 (% by FACS)” value [4, 6] was 67.8%. The “CD9 (% by FACS)” value [4, 7] was 0.2%, the “CD184 (% by FACS)” value [4, 7] was 96.5% and the “definitive endoderm level versus 3 μM MCX plus 100 ng/ml GDF-8 or 20 ng/ml WNT-3A plus 100 ng/ml Activin A on day one” value ([4]; 3 μM MCX in the absence of a TGF-β family member on day one) was “comparable”. For the same molecule, the “CD9 (% by FACS)” value [4, 8] was 0.2%, the “CD184 (% by FACS)” value [4, 8] was 96.0% and the “CD9 (% by FACS)” value [4, 9] was 1.0%. For the same molecule, the “CD184 (% by FACS)” value [4, 9] was 95.2% and the “definitive endoderm positive cells (CXCR4 positive, CD9 positive)” value ([4]; MCX at concentrations less than 2 μM) was “progressively fewer definitive endoderm positive cells”.

For O=C([O-])O.[Na+] [Sodium bicarbonate], the “CD9 (% by FACS)” value [4, 10] was 12.3%, the “CD99 (% by FACS)” value [4, 10] was 66.7% and the “cells expressing CXCR4, on average” value ([4]; 2.43 g/L sodium bicarbonate) was 87.4%. For the same molecule, the “CD9 (% by FACS)” value [4, 11] was 5.5%, the “CD99 (% by FACS)” value [4, 11] was 92.7% and the “cells expressing CXCR4, on average” value ([4]; 3.64 g/L sodium bicarbonate) was 97.35%.

“GDF8: TGF-β family member, GDF8 (Catalog #120-00, Peprotech)” was tested, and the “cells in G0/G1 of the cell cycle” value [3] was 48.5%, the “percentage of cells with EdU incorporation (mean of GDF8, WNT-3A, WNT-3A+Activin A and neat medium)” value [3] was 48.1% and the “average decrease in the number of cells in G0/G1 (GDF8, WNT-3A, WNT-3A+Activin A and neat medium)” value [3] was 13%.

B1: WNT-3A: WNT-3A (Catalog #1324-WN-002, R&D Systems) (protein, UniProt P56704 19-352, looked up)
Protein Wnt-3a: SYPIWWSLAVGPQYSSLGSQPILCASIPGLVPKQLRFCRNYVEIMPSVAEGIKIGIQECQHQFRGRRWNCTTVHDSLAIFGPVLDKATRESAFVHAIASAGVAFAVTRSCAEGTAAICGCSSRHQGSPGKGWKWGGCSEDIEFGGMVSREFADARENRPDARSAMNRHNNEAGRQAIASHMHLKCKCHGLSGSCEVKTCWWSQPDFRAIGDFLKDKYDSASEMVVEKHRESRGWVETLRPRYTYFKVPTERDLVYYEASPNFCEPNPETGSFGTRDRTCNVSSHGIDGCDLLCCGRGHNARAERRREKCRCVFHWCCYVSCQECTRVYDVHTCK
For B1, the “cells in G0/G1 of the cell cycle” value [3] was 55.8%, the “percentage of cells with EdU incorporation (mean of GDF8, WNT-3A, WNT-3A+Activin A and neat medium)” value [3] was 48.1% and the “average decrease in the number of cells in G0/G1 (GDF8, WNT-3A, WNT-3A+Activin A and neat medium)” value [3] was 13%.

— US10370644B2, “Method for making human pluripotent suspension cultures and cells derived therefrom” (Janssen Biotech, Inc., priority 2012, dated 2019)
